From the Biogen ADME set (Fang et al. 2023)
Values after ≈ are worked out from the molar mass of the structure shown.

Details: for aqueous solubility: pH 6.8

Row | MDR1-MDCK efflux ratio | intrinsic clearance, human liver microsomes | intrinsic clearance, rat liver microsomes | aqueous solubility | fraction unbound, human plasma | fraction unbound, rat plasma | SMILES
1 | 4.82 | 781 mL/min/kg | 1970 mL/min/kg | 87.5 µg/mL (≈ 216 µM) | – | – | O=C(NCc1ccc(F)cc1)C1(Cc2ccc(-c3cccnc3)cc2)CCOCC1
2 | 15.6 | 10.7 mL/min/kg | 257 mL/min/kg | – | – | – | O=c1c2c(C(F)(F)F)cccc2ncn1CCc1ncc[nH]1
3 | – | 6.17 mL/min/kg | 50 mL/min/kg | 52.9 µg/mL (≈ 229 µM) | – | – | CCC(CC)NC(=O)c1ccc(C#N)c(C)n1
4 | 57.3 | 8.83 mL/min/kg | 46.5 mL/min/kg | – | – | – | C[C@@H]1CC(=O)Nc2cccc(-c3ccc4c(c3)c(-c3cnn(C)c3)nn4C)c2N1
5 | – | – | – | 0.55 µg/mL (≈ 1.8 µM) | – | – | O=C(Nc1nc2ccccc2[nH]1)c1cc(Cl)ccc1Cl
6 | 1.08 | 216 mL/min/kg | 2610 mL/min/kg | 10 µg/mL (≈ 27.5 µM) | – | – | Cc1ccc(NC(=O)CN2CCCC(c3nc4ccccc4o3)C2)cc1C (stereo not drawn)
7 | – | 187 mL/min/kg | 956 mL/min/kg | – | – | – | CCOc1ccc(CC(=O)N2CCC3(CC2)Nc2cc(C)ccc2-n2cccc23)cc1OCC
8 | – | – | – | 0.19 µg/mL (≈ 0.719 µM) | – | – | N#Cc1c(N)nc(-c2ccccc2)nc1C(F)(F)F
9 | 44.4 | ≤ 4.74 mL/min/kg | 29.7 mL/min/kg | 31.5 µg/mL (≈ 73.3 µM) | – | – | O=C1N[C@@H]2CCN(C(=O)c3ccc(-c4ccccc4)cc3)[C@@H]2C(=O)N1c1ccc(F)cc1
10 | – | 24.4 mL/min/kg | 850 mL/min/kg | 3.72 µg/mL (≈ 13.5 µM) | – | – | N#Cc1cccnc1Nc1cnn(Cc2ccccc2)c1
11 | 0.583 | 19.2 mL/min/kg | 893 mL/min/kg | 54 µg/mL (≈ 183 µM) | – | – | COCCS(=O)(=O)N1CCC2(Cc3ccccc3C2)C1
12 | 0.709 | ≤ 4.74 mL/min/kg | ≤ 10.7 mL/min/kg | 38.9 µg/mL (≈ 163 µM) | – | – | Nc1nncc(-c2ccccc2OC(F)F)n1
13 | 0.41 | 82.8 mL/min/kg | 1440 mL/min/kg | 25.7 µg/mL (≈ 76.2 µM) | 0.177 | 0.118 | CCN1CCN(S(=O)(=O)Cc2ccc(Cl)c(Cl)c2)CC1
14 | – | ≤ 4.74 mL/min/kg | 19.6 mL/min/kg | 36.8 µg/mL (≈ 112 µM) | – | – | CN(CCN(C)C1CCCC1)C(=O)c1ccc(-c2nc[nH]n2)cc1
15 | – | 53.7 mL/min/kg | 892 mL/min/kg | 22.5 µg/mL (≈ 52.1 µM) | – | – | COc1ccc(CCn2c(C)c3c(=O)n(-c4nc5ccccc5s4)[nH]c3cc2=O)cc1
16 | 7.33 | ≤ 4.74 mL/min/kg | – | – | 0.0968 | – | NC(=O)c1cnc(N2CCc3[nH]nc(C(F)(F)F)c3C2)c(Cl)c1
17 | 2.09 | ≤ 4.74 mL/min/kg | 51.8 mL/min/kg | 31 µg/mL (≈ 99.7 µM) | – | – | O=C(Cc1ccc(Cl)c(Cl)c1)N1CC(n2ccnn2)C1
18 | 0.832 | 7.87 mL/min/kg | 59.3 mL/min/kg | 77.5 µg/mL (≈ 242 µM) | – | – | O=C(O)c1cnc(/C=C/c2csc(-c3ccsc3)n2)s1
19 | 56.1 | 112 mL/min/kg | 1180 mL/min/kg | 52.5 µg/mL (≈ 146 µM) | – | – | O=C(CN1CCc2ccccc21)N1CCC(c2nc3ccccc3[nH]2)CC1
20 | 4.54 | 9.09 mL/min/kg | 90.8 mL/min/kg | 57.8 µg/mL (≈ 157 µM) | – | – | CN1CCN(C(=O)c2cc(Br)cnc2Cl)c2cnccc21

Row | MDR1-MDCK efflux ratio | intrinsic clearance, human liver microsomes | intrinsic clearance, rat liver microsomes | aqueous solubility | fraction unbound, human plasma | fraction unbound, rat plasma | SMILES
21 | 0.655 | 400 mL/min/kg | – | – | 0.00911 | – | Cc1ccc(OCC2(O)CCN(CC3(O)CCN(c4ccccc4C)CC3)CC2)cc1
22 | 0.363 | 94.3 mL/min/kg | 1600 mL/min/kg | – | – | – | CN1CCN(c2oc(-c3cccc4ccccc34)nc2C#N)CC1
23 | 0.557 | 220 mL/min/kg | 1510 mL/min/kg | 41.1 µg/mL (≈ 127 µM) | – | – | COc1ccccc1OC1CCN(Cc2ccccc2C#N)CC1
24 | 14.6 | ≤ 4.74 mL/min/kg | 14.2 mL/min/kg | 67.3 µg/mL (≈ 157 µM) | – | – | Cc1nn(-c2ccc(F)cc2)c(Cl)c1C(=O)N1CCC(S(=O)(=O)C(C)C)CC1
25 | 0.645 | ≤ 4.74 mL/min/kg | 83.7 mL/min/kg | – | – | – | Cn1c(=O)n(Cc2cccnc2)c(=O)c2ccc(C(F)(F)F)nc21
26 | 0.768 | ≤ 4.74 mL/min/kg | 63.1 mL/min/kg | 17.9 µg/mL (≈ 81.2 µM) | – | – | CC(C)c1nnc(NCc2ccn(C)c2)o1
27 | – | 21.1 mL/min/kg | – | – | 0.0383 | 0.0592 | O=C(Nc1cccc2c(=O)cc(-c3nnn[nH]3)oc12)c1ccc(OCCCCc2ccccc2)cc1
28 | 0.54 | 93.9 mL/min/kg | 628 mL/min/kg | 25.1 µg/mL (≈ 90.8 µM) | – | – | c1ccc2c(c1)CN(c1cnc3ccccc3n1)CCN2
29 | 0.248 | 35.9 mL/min/kg | 105 mL/min/kg | 4.17 µg/mL (≈ 13.3 µM) | – | – | CCc1nnc(NC(=O)c2ccc3cc(OC)ccc3n2)s1
30 | 2 | 6.35 mL/min/kg | 553 mL/min/kg | 46.7 µg/mL (≈ 173 µM) | – | – | Cc1ccccc1N(CC(=O)N(C)C)S(C)(=O)=O
31 | 9.7 | 68.3 mL/min/kg | 707 mL/min/kg | 22.1 µg/mL (≈ 49 µM) | – | – | COc1cc2c(cc1OC)CN(C(=O)C1CCCN(S(=O)(=O)c3cccs3)C1)CC2 (stereo not drawn)
32 | – | ≤ 4.74 mL/min/kg | ≤ 10.7 mL/min/kg | 35.1 µg/mL (≈ 150 µM) | – | – | Cc1cc(F)ccc1NC(=O)Cn1cncn1
33 | 6.52 | ≤ 4.74 mL/min/kg | ≤ 10.7 mL/min/kg | 26.2 µg/mL (≈ 125 µM) | – | – | Cc1nccn1CCNC(=O)C(C)(C)C
34 | 73.8 | 36.7 mL/min/kg | 163 mL/min/kg | 65.8 µg/mL (≈ 140 µM) | 0.538 | 0.412 | COc1cc2c(cc1OC)CC(=O)N(CCCN(C)C[C@H]1Cc3cc(OC)c(OC)cc31)CC2
35 | 9.16 | 6.32 mL/min/kg | 287 mL/min/kg | – | – | – | CCN1CCCN(C(=O)Nc2ccc(COC3CCCC3)cc2)CC1
36 | 2.51 | ≤ 4.74 mL/min/kg | 100 mL/min/kg | – | – | – | CC(C)Oc1ccc(C#N)cc1NC1CCN(C)CC1
37 | 1.13 | 6.66 mL/min/kg | 57.2 mL/min/kg | – | – | – | CNc1ncc(CN(C)CCN2CCCCC2)cn1
38 | 0.685 | 10.2 mL/min/kg | 38.5 mL/min/kg | 1.3 µg/mL (≈ 3.55 µM) | – | – | Cc1nc2ccc(NC(=O)c3sc(-c4ccccn4)nc3C)cc2s1
39 | 0.729 | 21.2 mL/min/kg | 78.1 mL/min/kg | – | – | – | Cc1nccc(NC(=O)c2ccncc2Cl)c1Cl

Row | SMILES | MDR1-MDCK efflux ratio | intrinsic clearance, human liver microsomes | intrinsic clearance, rat liver microsomes | aqueous solubility | fraction unbound, human plasma | fraction unbound, rat plasma
40 | N#Cc1c(N)nc(SCC(N)=O)c(C#N)c1-c1ccc(OCC2CC2)cc1 | 42.5 | – | – | 0.52 µg/mL (≈ 1.37 µM) | – | –
